Patent publication US20250073199A1, “Polymyxin Antibiotic Synergist and Anti-Gram-Negative Bacteria Pharmaceutical Composition” (Artivila Biopharma, priority 2022, published 2025)

Experiments:
[1] = tested on: standard strain of Pseudomonas aeruginosa ATCC27853; assay: Chessboard combination test, bacterial inhibition rate / MIC / FIC; assay type: cell-based; conditions: FIG. 5
Description: (§1) 1) a standard strain of Klebsiella pneumoniae ATCC13883, a clinical resistant strain of Klebsiella pneumoniae 38206, a standard strain of Acinetobacter baumannii ATCC19606, a standard strain of Escherichia coli ATCC25922, and a standard strain of Pseudomonas aeruginosa ATCC27853 were respectively cultured at 37° C. and under shaking at 220 rpm until OD600=0.6-0.8, where OD600 referred to the absorbance of the solution at a wavelength of 600 nm.
(§2) 2) The density of each bacterial culture with OD600=0.6-0.8 cultured in step 1) was adjusted to OD600=0.001 and placed in a chessboard experimental device.
(§3) 3) Polymyxin B was subjected to 2-fold serial dilution along the horizontal axis, and dronedarone was subjected to 2-fold serial dilution along the vertical axis.
(§4) 4) A blank group (added with a LB broth medium) and a control group (added with a LB broth medium and the standard bacterial solution cultured in step 1).
(§5) 5) The final volume in each well of a 96-well plate was controlled to be 100 μL. After incubation for 18 h, each well was added with 10 μL of MTT, incubated at a condition of 37° C. with protection from light for 30 min, and then determined for the absorbance at 600 nm with a microplate reader. The bacterial inhibition rate was calculated according to the formula: bacterial inhibition rate (%)=1−(OD600 of an experimental group−OD600 of the blank group)/(OD600 of the control group−OD600 of the blank group)×100%, and a bacterial calorimetry diagram was drawn (the results were shown in FIGS. 1-5).
(§6) The calculation equation of the FIC index was as follows:
(§7) FIC=MICab/MICa+MICba/MICb=FICa+FICb, wherein a represented the dronedarone, b represented the polymyxin B, MICab was a MIC value of a combination of the dronedarone and the polymyxin B, MICba was a MIC value of a combination of the polymyxin B and the dronedarone, MICa or MICb was a MIC value of the dronedarone or the polymyxin B, respectively, and FICa or FICb was a FIC value of the dronedarone or the polymyxin B, respectively.

[2] = tested on: standard strain of Escherichia coli ATCC25922; assay: as above; assay type: cell-based; conditions: FIG. 4
Description: as §1, §2, §3, §4, §5, §6, §7

[3] = tested on: standard strain of Acinetobacter baumannii ATCC19606; assay: as above; assay type: cell-based; conditions: FIG. 3
Description: as §1, §2, §3, §4, §5, §6, §7

[4] = tested on: standard strain of Klebsiella pneumoniae ATCC13883; assay: as above; assay type: cell-based; conditions: FIG. 1
Description: as §1, §2, §3, §4, §5, §6, §7

[5] = tested on: clinical resistant strain of Klebsiella pneumoniae 38206; assay: as above; assay type: cell-based; conditions: FIG. 2
Description: as §1, §2, §3, §4, §5, §6, §7

[6] = tested on: clinical polymyxin B-resistant strain of Klebsiella pneumoniae (38206); assay: Mouse lung infection model, survival; assay type: in vivo, BALB/c female mice; conditions: intraperitoneal injection, 7 days
Description: The dronedarone and the polymyxin B were combined to form a pharmaceutical composition, and used in combination in a mouse infection model to further illustrate the present disclosure.
1) Establishment of lung infection model: 60 BALB/c female mice aged 6-8 weeks (weighing about 20 g) were injected intrapulmonically with a lethal dose of a clinical polymyxin B-resistant strain of Klebsiella pneumoniae (38206) to establish an infection model. The concentration of the clinical polymyxin B-resistant strain of Klebsiella pneumoniae 38206 was 1.0×10^8 CFUs per mouse;
2) Group treatment: The female mice were randomly divided into six groups (n=10 mice per group), and treated with the drug through intraperitoneal injection.
Among them, the six groups included a control group (injected with a PBS buffer), a treatment group I (injected with 0.2 mg/kg of the polymyxin B alone), a treatment group II (injected with 10 mg/kg of the dronedarone alone), a treatment group III (injected with a mixed solution of 0.2 mg/kg of the polymyxin B and 1 mg/kg of the dronedarone), a treatment group IV (injected with a mixed solution of 0.2 mg/kg of the polymyxin B and 5 mg/kg of the dronedarone), and a treatment group V (injected with a mixed solution of 0.2 mg/kg of the polymyxin B and 10 mg/kg of the dronedarone). […]

[7] = polymyxin B 2 μg/mL, dronedarone not used
[8] = in combination with dronedarone 5 μg/mL
[9] = polymyxin B 1 μg/mL, dronedarone not used
[10] = in combination with dronedarone 2.5 μg/mL
[11] = in combination with polymyxin B 0.25 μg/mL

## polymyxin B
[1]; in combination with dronedarone 10 μg/mL
  MICba (MIC of polymyxin B after combination with dronedarone): 1 µg/mL
[1]; [7]
  inhibition percentage: 100%
[1]; used alone
  MIC used alone (MICa, MICb): 2 µg/mL
[2]; [8]
  MICba (MIC of polymyxin B after combination with dronedarone): 0.25 µg/mL
[2]; [9]
  inhibition percentage: 100%
[2]; used alone
  MIC used alone (MICa, MICb): 1 µg/mL
[3]; [8]
  MICba (MIC of polymyxin B after combination with dronedarone): 0.25 µg/mL
[3]; [9]
  inhibition percentage: 100%
[3]; used alone
  MIC used alone (MICa, MICb): 2 µg/mL
[4]; [10]
  MICba (MIC of polymyxin B after combination with dronedarone): 0.13 µg/mL
[4]; [7]
  inhibition percentage: 100%
[4]; used alone
  MIC used alone (MICa, MICb): 2 µg/mL
[5]; [10]
  MICba (MIC of polymyxin B after combination with dronedarone): 4 µg/mL
[5]; polymyxin B 16 μg/mL, dronedarone not used
  inhibition percentage: 100%
[5]; used alone
  MIC used alone (MICa, MICb): 16 µg/mL
[6]; polymyxin B alone 0.2 mg/kg
  survival rate: 10%

## CCCCc1oc2ccc(NS(C)(=O)=O)cc2c1C(=O)c1ccc(OCCCN(CCCC)CCCC)cc1 [dronedarone, N-[2-butyl-3-[4-[3-(dibutylamino)propoxy]benzoyl]-1-benzofuran-5-yl]methanesulfonamide]
[1]; Pseudomonas aeruginosa, ATCC27853, dronedarone alone at highest concentration 20 μg/mL, no polymyxin B, read-out: bacterial inhibition percentage
  inhibition at 20 µg/mL: ~0%
[1]; Pseudomonas aeruginosa, ATCC27853, used alone, read-out: MIC used alone (MICa, MICb)
  MIC: > 20 µg/mL
[1]; in combination with polymyxin B 1 μg/mL
  MICab (MIC of dronedarone after combination with polymyxin B): 10 µg/mL
[2]; Escherichia coli, ATCC25922, dronedarone alone at highest concentration 20 μg/mL, no polymyxin B, read-out: bacterial inhibition percentage
  inhibition at 20 µg/mL: ~0%
[2]; Escherichia coli, ATCC25922, used alone, read-out: MIC used alone (MICa, MICb)
  MIC: > 20 µg/mL
[2]; [11]
  MICab (MIC of dronedarone after combination with polymyxin B): 5 µg/mL
[3]; Acinetobacter baumannii, ATCC19606, dronedarone alone at highest concentration 20 μg/mL, no polymyxin B, read-out: bacterial inhibition percentage
  inhibition at 20 µg/mL: ~0%
[3]; Acinetobacter baumannii, ATCC19606, used alone, read-out: MIC used alone (MICa, MICb)
  MIC: > 20 µg/mL
[3]; [11]
  MICab (MIC of dronedarone after combination with polymyxin B): 5 µg/mL
[4]; Klebsiella pneumoniae, ATCC13883, dronedarone alone at highest concentration 20 μg/mL, no polymyxin B, read-out: bacterial inhibition percentage
  inhibition at 20 µg/mL: ~0%
[4]; Klebsiella pneumoniae, ATCC13883, used alone, read-out: MIC used alone (MICa, MICb)
  MIC: > 20 µg/mL
[4]; in combination with polymyxin B 0.13 μg/mL
  MICab (MIC of dronedarone after combination with polymyxin B): 2.5 µg/mL
[5]; Klebsiella pneumoniae, dronedarone alone at highest concentration 20 μg/mL, no polymyxin B, read-out: bacterial inhibition percentage
  inhibition at 20 µg/mL: ~0%
[5]; Klebsiella pneumoniae, used alone, read-out: MIC used alone (MICa, MICb)
  MIC: > 20 µg/mL
[5]; in combination with polymyxin B 4 μg/mL
  MICab (MIC of dronedarone after combination with polymyxin B): 2.5 µg/mL
[6]; dronedarone alone 10 mg/kg
  survival rate: 10%
